Assay results from ChEMBL document CHEMBL1201862, “PubChem BioAssay data set” (2004).
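Protocol summary: plate cells (96-well), add compound at 5 concentrations, incubate 48 h, interpolate endpoints linearly. GI50 is the concentration that inhibits growth by half.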 Active and inactive are the calls of the source. Rule as the data show it: active = GI50 up to about 1.1 µM and inactive = higher.

Key:
Experiment in all cases: NCI anticancer screen, dose series, 48 h
[1] = system: 786-0
[2] = system: A498
[3] = system: A549
[4] = system: ACHN
[5] = system: BT-549
[6] = system: CAKI-1
[7] = system: CCRF-CEM
[8] = system: COLO 205
[9] = system: DU-145
[10] = system: HCC 2998
[11] = system: HCT-116
[12] = system: HCT-15
[13] = system: HL-60
[14] = system: HOP-92
[15] = system: HT-29
[16] = system: Hs-578T
[17] = system: K562
[18] = system: KM12
[19] = system: LOX IMVI
[20] = system: M14
[21] = system: MCF7
[22] = system: MDA-MB-231
[23] = system: MDA-MB-435
[24] = system: MDA-N
[25] = system: MOLT-4
[26] = system: Malme-3M
[27] = system: NCI-H226
[28] = system: NCI-H23
[29] = system: NCI-H460
[30] = system: NCI-H522
[31] = system: NCI/ADR-RES
[32] = system: OVCAR-4
[33] = system: OVCAR-5
[34] = system: OVCAR-8
[35] = system: PC-3
[36] = system: RPMI-8226
[37] = system: RXF 393
[38] = system: SF-268
[39] = system: SF-295
[40] = system: SF-539
[41] = system: SK-MEL-28
[42] = system: SK-MEL-2
[43] = system: SK-MEL-5
[44] = system: SK-OV-3
[45] = system: SN12C
[46] = system: SNB-19
[47] = system: SNB-75
[48] = system: SW-620
[49] = system: T47D
[50] = system: TK-10
[51] = system: U-251
[52] = system: UACC-257
[53] = system: UACC-62
[54] = system: UO-31
[55] = system: EKVX
[56] = system: HOP-62
[57] = system: IGROV-1
[58] = system: OVCAR-3

COc1c(/C=C/C(C)(C)O)cc(C2CC(=O)c3c(O)cc(O)cc3O2)cc1CC=C(C)C (stereo not drawn)
GI50 [1]: 9.57 µM (inactive)
GI50 [2]: 9.48 µM (inactive)
GI50 [3]: 9.75 µM (inactive)
GI50 [4]: 7.6 µM (inactive)
GI50 [5]: 8.49 µM (inactive)
GI50 [6]: 16 µM (inactive)
GI50 [7]: 13.2 µM (inactive)
GI50 [8]: 9.35 µM (inactive)
GI50 [9]: 9.06 µM (inactive)
GI50 [10]: 2.36 µM (inactive)
GI50 [11]: 9.14 µM (inactive)
GI50 [12]: 8.2 µM
GI50 [13]: 12.8 µM (inactive)
GI50 [14]: 10.3 µM (inactive)
GI50 [15]: 8.91 µM (inactive)
GI50 [16]: 10.7 µM (inactive)
GI50 [17]: 10.7 µM (inactive)
GI50 [18]: 10.4 µM (inactive)
GI50 [19]: 4.44 µM (inactive)
GI50 [20]: 8.45 µM (inactive)
GI50 [21]: 8.51 µM (inactive)
GI50 [22]: 8.22 µM (inactive)
GI50 [23]: 8.02 µM (inactive)
GI50 [24]: 9.53 µM (inactive)
GI50 [25]: 11.7 µM (inactive)
GI50 [26]: 10.1 µM (inactive)
GI50 [27]: 9.71 µM (inactive)
GI50 [28]: 9.02 µM (inactive)
GI50 [29]: 8.73 µM (inactive)
GI50 [30]: 9.27 µM (inactive)
GI50 [31]: 12.1 µM (inactive)
GI50 [32]: 10.4 µM (inactive)
GI50 [33]: 9.14 µM (inactive)
GI50 [34]: 10.8 µM (inactive)
GI50 [35]: 8.53 µM (inactive)
GI50 [36]: 10.8 µM (inactive)
GI50 [37]: 7.91 µM (inactive)
GI50 [38]: 9.04 µM (inactive)
GI50 [39]: 7.26 µM (inactive)
GI50 [40]: 9.4 µM (inactive)
GI50 [41]: 13.2 µM (inactive)
GI50 [42]: 8.61 µM (inactive)
GI50 [43]: 8.47 µM (inactive)
GI50 [44]: 7.83 µM (inactive)
GI50 [45]: 6.27 µM (inactive)
GI50 [46]: 10.6 µM (inactive)
GI50 [47]: 9.86 µM (inactive)
GI50 [48]: 17.3 µM (inactive)
GI50 [49]: 11 µM (inactive)
GI50 [50]: 8.67 µM (inactive)
GI50 [51]: 7.71 µM (inactive)
GI50 [52]: 8.3 µM (inactive)
GI50 [53]: 6.79 µM (inactive)
GI50 [54]: 0.762 µM (active)

C=CCNC(=O)CN(CC(=O)OC)C1CCCCC1N(CC(=O)OC)CC(=O)OC (stereo not drawn)
GI50 [2]: > 100 µM (inactive)
GI50 [3]: > 100 µM (inactive)
GI50 [4]: > 100 µM (inactive)
GI50 [5]: > 100 µM (inactive)
GI50 [6]: > 100 µM (inactive)
GI50 [7]: > 100 µM (inactive)
GI50 [9]: > 100 µM (inactive)
GI50 [55]: > 100 µM (inactive)
GI50 [10]: 70 µM (inactive)
GI50 [11]: > 100 µM (inactive)
GI50 [12]: > 100 µM
GI50 [13]: > 100 µM (inactive)
GI50 [56]: > 100 µM (inactive)
GI50 [14]: > 100 µM (inactive)
GI50 [15]: > 100 µM (inactive)
GI50 [16]: > 100 µM (inactive)
GI50 [57]: > 100 µM (inactive)
GI50 [17]: > 100 µM (inactive)
GI50 [18]: > 100 µM (inactive)
GI50 [19]: > 100 µM (inactive)
GI50 [20]: > 100 µM (inactive)
GI50 [21]: > 100 µM (inactive)
GI50 [22]: > 100 µM (inactive)
GI50 [23]: > 100 µM (inactive)
GI50 [24]: > 100 µM (inactive)
GI50 [25]: > 100 µM (inactive)
GI50 [26]: > 100 µM (inactive)
GI50 [27]: > 100 µM (inactive)
GI50 [28]: > 100 µM (inactive)
GI50 [29]: > 100 µM (inactive)
GI50 [30]: > 100 µM (inactive)
GI50 [31]: > 100 µM (inactive)
GI50 [58]: > 100 µM (inactive)
GI50 [33]: > 100 µM (inactive)
GI50 [34]: > 100 µM (inactive)
GI50 [35]: > 100 µM (inactive)
GI50 [36]: > 100 µM (inactive)
GI50 [37]: > 100 µM (inactive)
GI50 [38]: > 100 µM (inactive)
GI50 [39]: > 100 µM (inactive)
GI50 [40]: > 100 µM (inactive)
GI50 [41]: > 100 µM (inactive)
GI50 [42]: > 100 µM (inactive)
GI50 [43]: > 100 µM (inactive)
GI50 [44]: > 100 µM (inactive)
GI50 [45]: > 100 µM (inactive)
GI50 [46]: > 100 µM (inactive)
GI50 [48]: > 100 µM (inactive)
GI50 [49]: > 100 µM (inactive)
GI50 [50]: > 100 µM (inactive)
GI50 [51]: > 100 µM (inactive)
GI50 [52]: > 100 µM (inactive)
GI50 [53]: > 100 µM (inactive)
GI50 [54]: > 100 µM (inactive)
